IC50 data for 26 compounds are collected here from patent US9359308B2, “Pyrazine kinase inhibitors” (Portola Pharmaceuticals, Inc., priority 2011, dated 2016).

The target in the experiment is T1, full length active recombinant SYK enzyme (Homo sapiens, UniProt P43405).
T1 construct: full length active recombinant SYK enzyme (Millipore, Calif.); purchased Millipore
Kind of experiment: Inhibition of Syk tyrosine phosphorylation activity (LANCE TR-FRET kinase assay). Conditions: activity in the Syk assays, class symbols. It is filed as biochemical. Summed up:
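IC50 was derived by non-linear regression of TR-FRET signal (Eu-W1024-PY100 donor, streptavidin-APC acceptor) read 1 h after EDTA quench. The kinase step ran 1 h at room temperature with 1 nM full-length SYK, 550 nM biotinylated DEEDYESP substrate and 100 μM ATP in Tris pH 7.5/MgCl2/DTT at 3% final DMSO.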
In general terms: In TR-FRET formats the signal depends on donor and acceptor labels being close together.
For the compound `CC(C)C[C@@H](Nc1cnc(C(N)=O)c(Nc2ccnc(C3CC3)c2)n1)C(N)=O` [Example 344, (R)-5-(1-amino-4-methyl-1-oxopentan-2-ylamino)-3-(2-cyclopropylpyridin-4-ylamino)pyrazine-2-carboxamide], the IC50 (as a rule, the concentration needed to halve the response being measured) is less than 1 nM. The figure for `NC(=O)c1ncc(N[C@@H]2CCCC(F)(F)[C@@H]2N)nc1Nc1ccc(C2CC2)nc1` [Example 345, 5-((1R,2R)-2-amino-3,3-difluorocyclohexylamino)-3-(6-cyclopropylpyridin-3-ylamino)pyrazine-2-carboxamide] is 10 to 100 nM. As for `NC(=O)c1ncc(N[C@@H]2CCCC(F)(F)[C@@H]2N)nc1Nc1ccnc(C2CC2)c1` [Example 346, 5-((1R,2R)-2-amino-3,3-difluorocyclohexylamino)-3-(2-cyclopropylpyridin-4-ylamino)pyrazine-2-carboxamide], the half-inhibitory concentration (IC50) fell in the range of 1 to 10 nM. For the compound `CCc1ccc(Nc2nc(N[C@H](CC(C)C)C(N)=O)cnc2C(N)=O)cn1` [Example 347, (R)-5-(1-amino-4-methyl-1-oxopentan-2-ylamino)-3-(6-ethylpyridin-3-ylamino)pyrazine-2-carboxamide], the IC50 fell in the range of 1 to 10 nM. In the case of `CC(C)C[C@@H](Nc1cnc(C(N)=O)c(Nc2ccc(C3CC3)nc2)n1)C(N)=O` [Example 348, (R)-5-(1-amino-4-methyl-1-oxopentan-2-ylamino)-3-(6-cyclopropylpyridin-3-ylamino)pyrazine-2-carboxamide], the IC50 was 1 to 10 nM. For the compound `CC[C@@H](Nc1cnc(C(N)=O)c(Nc2ccnc(C(F)(F)F)c2)n1)C(N)=O` [Example 349, (R)-5-(1-amino-1-oxobutan-2-ylamino)-3-(2-(trifluoromethyl)pyridin-4-ylamino)pyrazine-2-carboxamide], the 50% inhibitory concentration (IC50) was in the range of 10 to 100 nM. With `CCc1ccc(Nc2nc(N[C@@H]3CCCC[C@@H]3N)cnc2C(N)=O)cn1` [Example 350, 5-((1R,2S)-2-aminocyclohexylamino)-3-(6-ethylpyridin-3-ylamino)pyrazine-2-carboxamide], the 50% inhibitory concentration (IC50) is 1 to 10 nM. For the compound `NC(=O)c1ncc(N[C@@H]2CCCC[C@@H]2N)nc1Nc1ccc(C2CC2)nc1` [Example 351, 5-((1R,2S)-2-aminocyclohexylamino)-3-(6-cyclopropylpyridin-3-ylamino)pyrazine-2-carboxamide], the IC50 is 1 to 10 nM. The figure for `NC(=O)c1ncc(N[C@@H]2CCCC[C@@H]2N)nc1Nc1ccnc(C2CC2)c1` [Example 352, 5-((1R,2S)-2-aminocyclohexylamino)-3-(2-cyclopropylpyridin-4-ylamino)pyrazine-2-carboxamide] is less than 1 nM; for `CC[C@@H](Nc1cnc(C(N)=O)c(Nc2ccnc(N(C)C)c2)n1)C(N)=O` [Example 353, (R)-5-(1-amino-1-oxobutan-2-ylamino)-3-(2-(dimethylamino)pyridin-4-ylamino)pyrazine-2-carboxamide] it is 1 to 10 nM; for `CC[C@@H](Nc1cnc(C(N)=O)c(Nc2ccnc(OC3CCC3)c2)n1)C(N)=O` [Example 354, (R)-5-(1-amino-1-oxobutan-2-ylamino)-3-(2-cyclobutoxypyridin-4-ylamino)pyrazine-2-carboxamide] it is 1 to 10 nM.

As for `CCc1cc(Nc2nc(N[C@@H]3CCCC(F)(F)[C@@H]3N)cnc2C(N)=O)ccn1` [Example 355, 5-((1R,2R)-2-amino-3,3-difluorocyclohexylamino)-3-(2-ethylpyridin-4-ylamino)pyrazine-2-carboxamide], the IC50 lay in the range of 10 to 100 nM. Turning to `NC(=O)c1ncc(N[C@@H]2CCCC(F)(F)[C@@H]2N)nc1Nc1ccnc(OC2CCC2)c1` [Example 356, 5-((1R,2R)-2-amino-3,3-difluorocyclohexylamino)-3-(2-cyclobutoxypyridin-4-ylamino)pyrazine-2-carboxamide], the IC50 was 10 to 100 nM.

Consider `COc1cc(Nc2nc(N[C@@H]3CCOC[C@@H]3N)cnc2C(N)=O)ccn1` [Example 357, 5-((3R,4R)-3-aminotetrahydro-2H-pyran-4-ylamino)-3-(2-methoxypyridin-4-ylamino)pyrazine-2-carboxamide], for which the IC50 lay in the range of 1 to 10 nM. Consider `COc1cncc(Nc2nc(N[C@@H]3CCOC[C@@H]3N)cnc2C(N)=O)c1` [Example 358, 5-((3R,4R)-3-aminotetrahydro-2H-pyran-4-ylamino)-3-(5-methoxypyridin-3-ylamino)pyrazine-2-carboxamide], for which the IC50 lay in the range of 1 to 10 nM. As to `CC[C@@H](Nc1cnc(C(N)=O)c(Nc2ccc(-c3cnn(C)c3)cc2)n1)C(N)=O` [Example 359, (R)-5-(1-amino-1-oxobutan-2-ylamino)-3-(4-(1-methyl-1H-pyrazol-4-yl)phenylamino)pyrazine-2-carboxamide], the IC50 lay in the range of 1 to 10 nM. Consider `COC[C@@H](Nc1cnc(C(N)=O)c(Nc2ccc3ncccc3c2)n1)C(N)=O` [Example 360, (R)-5-(1-amino-3-methoxy-1-oxopropan-2-ylamino)-3-(quinolin-6-ylamino)pyrazine-2-carboxamide], for which the IC50 fell in the range of 10 to 100 nM. On to `NC(=O)c1ncc(N[C@H](Cc2ccncc2)C(N)=O)nc1Nc1ccc2ncccc2c1` [Example 361, (R)-5-(1-amino-1-oxo-3-(pyridin-4-yl)propan-2-ylamino)-3-(quinolin-6-ylamino)pyrazine-2-carboxamide], for which the half-inhibitory concentration (IC50) fell in the range of 10 to 100 nM. Then `NC(=O)c1ncc(NC2(C(N)=O)CC2)nc1Nc1cnc2ccccc2c1` [Example 362, 5-(1-carbamoylcyclopropylamino)-3-(quinolin-3-ylamino)pyrazine-2-carboxamide], with 10 to 100 nM; and `NC(=O)c1ncc(N[C@@H]2CCCC(F)(F)[C@@H]2N)nc1Nc1cncc2ccccc12` [Example 363, 5-((1R,2R)-2-amino-3,3-difluorocyclohexylamino)-3-(isoquinolin-4-ylamino)pyrazine-2-carboxamide], with 10 to 100 nM; and `NC(=O)c1ncc(N[C@@H]2CCCC(F)(F)[C@@H]2N)nc1Nc1ccc2cnccc2c1` [Example 364, 5-((1R,2R)-2-amino-3,3-difluorocyclohexylamino)-3-(isoquinolin-6-ylamino)pyrazine-2-carboxamide], with 1 to 10 nM. Turning to `NC(=O)c1ncc(N[C@@H]2CCCC(F)(F)[C@@H]2N)nc1Nc1ccc2nccnc2c1` [Example 365, 5-((1R,2R)-2-amino-3,3-difluorocyclohexylamino)-3-(quinoxalin-6-ylamino)pyrazine-2-carboxamide], the IC50 lay in the range of 10 to 100 nM.

On to `NC(=O)c1ncc(N[C@@H]2CCCC(F)(F)[C@@H]2N)nc1Nc1ccnc2ccccc12` [Example 366, 5-((1R,2R)-2-amino-3,3-difluorocyclohexylamino)-3-(quinolin-4-ylamino)pyrazine-2-carboxamide], for which the IC50 is 10 to 100 nM. `CC[C@@H](Nc1cnc(C(N)=O)c(Nc2cncc3ccccc23)n1)C(N)=O` [Example 367, (R)-5-(1-amino-1-oxobutan-2-ylamino)-3-(isoquinolin-4-ylamino)pyrazine-2-carboxamide]: the IC50 lay in the range of 1 to 10 nM.

On to `CC[C@@H](Nc1cnc(C(N)=O)c(Nc2ccc3cnccc3c2)n1)C(N)=O` [Example 368, (R)-5-(1-amino-1-oxobutan-2-ylamino)-3-(isoquinolin-6-ylamino)pyrazine-2-carboxamide], for which the half-maximal inhibitory concentration (IC50) lay within 1 to 10 nM.

Take `CC[C@@H](Nc1cnc(C(N)=O)c(Nc2ccc3nccnc3c2)n1)C(N)=O` [Example 369, (R)-5-(1-amino-1-oxobutan-2-ylamino)-3-(quinoxalin-6-ylamino)pyrazine-2-carboxamide]: the concentration for half-maximal inhibition (IC50) is 1 to 10 nM.
